The values below come from US20210227854A1, “USE OF D-RIBOSE TO ENHANCE ADAPTATION TO PHYSICAL STRESS” (Bioenergy Life Science, Inc., priority 2014, published 2021).

Type in all cases: in vivo, human
A short description of series [1]: Two-minute power test (time trial) on cycle ergometer after sixty-minute high-intensity exercise session, double-blind crossover study. The settings on record: for Absolute mean power output change / Relative mean power output change: Table 4, mean (±SD); for Mean Power (W/kg BW): difference between day 1 and day 3, 10 g/day, mean ± SD. The protocol: (§1) A high-intensity exercise protocol was designed as a double-blind, crossover study to assess the influence of D-Ribose adaptation to physical stress. Specifically, D-Ribose and a control (Dextrose) were administered on separate subjects at a dosage of ten grams per day (10 g/day). A variety of physiological parameters were measured in the subjects administered D-Ribose (DR) supplementation (i.e., the DR subjects) versus the subjects administered Dextrose (DEX) supplementation (i.e., the DEX subjects).
The subjects consisted of twenty-six (26) healthy individual (10 females, 16 males). Each subject was randomly categorized as a DR subject or a DEX subject for the administration of supplementation. Furthermore, each subject was required to maintain his or her normal diet during the study, as well as performing his or her normal daily activities without performing any additional separate exercise sessions not part of the study protocol.
To test D-ribose for adaptation, the twenty-six (26) adult subjects were further divided into two subgroups based on their fitness level (i.e., peak oxygen uptake (VO2 max) results. The first subgroup comprised subjects with higher VO2 max results (i.e., the “Fit Subgroup”) and the second subgroup comprised subjects with lower VO2 max results (i.e., the “Unfit Subgroup”). The Unfit Subgroup consisted of six (6) females and seven (7) males. The average age of the Unfit Subgroup was 27.7±3.4 years and the average peak VO2 of the Unfit Subgroup was 39.9±4.1 mL/kg/min. The Fit Subgroup consisted of four (4) females and nine (9) males. The average age of the Fit Subgroup was 27.6±3.5 year and the average peak VO2 of the Fit Subgroup was 52.2±4.3 mL/kg/min.
On the load days (i.e., the two (2) days prior to the exercise sessions), DR subjects consumed five grams (5 g) of DR mixed with either their food or in a self-selected beverage with lunch and an additional five grams (5 g) with dinner (i.e., between three to eight hours apart), while DEX subjects consumed five grams (5 g) of DEX mixed with either their food or in a self-selected beverage with lunch and an additional five grams (5 g) with dinner (i.e., between three to eight hours apart).
On the exercise session days (i.e., three (3) days following the load days), DR subjects ingested a standardized pre-exercise snack containing five grams (5 g) of DR at two (2) hours before the exercise session and five grams (5 g) of DR following the exercise session but before leaving the laboratory (i.e., within one hour following the exercise session), while DEX subjects ingested a standardized pre-exercise snack containing five grams (5 g) of DEX at two (2) hours before the exercise session and five grams (5 g) of DEX following the exercise session but before leaving the laboratory (i.e., within one hour following the exercise session). For both DR subjects and DEX subjects, the standardized snacks were self-selected but were based on the subjects' normal dietary habits. The snacks were consistent from day to day and consisted of one hundred seventy grams (170 g) of yogurt and two granola bars, along with the designated supplement. Subjects were asked to record their diets so that there would be consistency throughout the testing period. Following an exercise session, each subject ingested the final daily dose of five grams (5 g) before leaving the laboratory. Subjects also ingested two hundred milliliters (200 ml) of water at twenty (20) and forty (40) minutes of exercise to minimize the effects of dehydration, which can occur during periods of high-intensity exercise.
Each subject was randomly assigned to be a DR subject (for administration of DR supplementation) or a DEX subject (for administration of DEX supplementation). Apart from the supplementation provided to and consumed by the subject, the treatment protocols were identical. The specific treatment protocol (i.e., administration of supplementation and exercise sessions) is detailed in Table 1 below: […]

Series [2] can be described thus: Tolerability of supplementation in the exercise study. The note with it: 10 g/day; 26 subjects. The method, then: as §1
The subjects consisted of twenty-six (26) healthy individual (10 females, 16 males). Each subject was randomly categorized as a DR subject or a DEX subject for the administration of supplementation. Furthermore, each subject was required to maintain his or her normal diet during the study, as well as performing his or her normal daily activities without performing any additional separate exercise sessions not part of the study protocol. […]

A short description of series [3]: Heart rate (HR) during exercise sessions. The settings on record: for HR (bpm): 10 g/day, mean ± SD. The method, then:
A high-intensity exercise protocol was designed as a double-blind, crossover study to assess the influence of D-Ribose adaptation to physical stress. Specifically, D-Ribose and a control (Dextrose) were administered on separate subjects at a dosage of ten grams per day (10 g/day). A variety of physiological parameters were measured in the subjects administered D-Ribose (DR) supplementation (i.e., the DR subjects) versus the subjects administered Dextrose (DEX) supplementation (i.e., the DEX subjects). To test D-ribose for adaptation, the twenty-six (26) adult subjects were further divided into two subgroups based on their fitness level (i.e., peak oxygen uptake (VO2 max) results. The first subgroup comprised subjects with higher VO2 max results (i.e., the “Fit Subgroup”) and the second subgroup comprised subjects with lower VO2 max results (i.e., the “Unfit Subgroup”). The Unfit Subgroup consisted of six (6) females and seven (7) males. The average age of the Unfit Subgroup was 27.7±3.4 years and the average peak VO2 of the Unfit Subgroup was 39.9±4.1 mL/kg/min. The Fit Subgroup consisted of four (4) females and nine (9) males. The average age of the Fit Subgroup was 27.6±3.5 year and the average peak VO2 of the Fit Subgroup was 52.2±4.3 mL/kg/min. The protocol of the double-blind crossover study involved an initial baseline assessment, followed by two separate day assessments after consuming either a DR or DEX supplement. Each exercise session entailed measurements of creatine kinase (CK), blood urea nitrogen (BUN), glucose, heart rate (HR), rate of perceived exertion (RPE), and power output (PO) measurements. Each exercise session consisted of six (6) ten-minute intervals of exercise on a cycle ergometer. During each ten-minute interval, the subject cycled for eight (8) minutes at a workload of approximately 60% of the subject's VO2 max, then immediately cycled for an additional two (2) minutes at a workload of approximately 80% VO2 max (approximately one workload above the subject's calculated lactate threshold). Cadence and power output were monitored at ten-minute intervals during each exercise session. At the end of the sixty-minute exercise session, each subject completed a two-minute performance task (time trial). This performance task required the subject to produce as much power as possible during the two-minute interval. Peak power, average power, and percent decline were assessed during this two-minute task trial. Workload for performance task was set at five percent (5%) of the subject's body weight. Heart rate was recorded using a Polar HR monitor. Blood glucose levels were measured using a Bayer glucose monitor. Blood lactate levels were measured by an AccuSport Lactate Analyzer. Creatine kinase and BUN were measured utilizing an Abaxis Piccolo analyzer. Power data from the time trial performance test was assessed with the Sports Medicine Industries (SMI) software package.

With `O=C[C@H](O)[C@@H](O)[C@H](O)[C@H](O)CO` [DEX, Dextrose, reference compound], in series [1] (Fit Subgroup), the “Average change in absolute peak power from Day 1 to Day 3” value (from here on “Average change in absolute peak power”) came to 3.31±25.8 W, the “Average change in relative peak power from Day 1 to Day 3” value (“Average change in relative peak power” for short) was −0.02+0.37 W/kg BW, the “Absolute mean power output change” value is given as 8.2 (27.7) W and the “Relative mean power output change” value is on record as 0.07 (0.33) W/kg BW. In addition, in series [1] (Fit Subgroup), the “Mean Power (W/kg BW)” value is reported as 0.07 ± 0.33 W/kg BW. Further, in series [1] (Unfit Subgroup), the “Average change in absolute peak power” value is −10.8±33.0 W, the “Average change in relative peak power” value is −0.09+0.51 W/kg BW, the “Absolute mean power output change” value is listed as −8.9 (22.4) W and the “Relative mean power output change” value is listed as −0.09 (0.29) W/kg BW. For the same molecule, the “Mean Power (W/kg BW)” value in series [1] (Unfit Subgroup) is listed as −0.09 ± 0.31 W/kg BW. For the same molecule, in series [2], the Tolerability of supplement result is given as “without any subjective complaints or issues”. Also, in series [3] (Fit Subgroup), the “Average HR” value amounted to 153±12 bpm and the “HR (bpm)” value amounted to 152.4 ± 11.7 bpm. In series [3] (Unfit Subgroup), the “Average HR” value came to 153±17 bpm and the “HR (bpm)” value is listed as 152.0 ± 19.5 bpm.
Take `O=C[C@H](O)[C@H](O)[C@H](O)CO` [DR, D-Ribose]: in series [1] (Fit Subgroup), the “Average change in absolute peak power” value stood at 6.2±28.6 W; the “Average change in relative peak power” value was 0.15±0.41 W/kg BW; the “Relative and absolute mean power outputs, DR versus DEX treatments” value is given as “not different”; the “Absolute mean power output change” value was 2.3 (17.1) W. Also, in series [1] (Fit Subgroup), the “Relative mean power output change” value was 0.08 (0.39) W/kg BW and the “Mean Power (W/kg BW)” value came out at 0.08 ± 0.31 W/kg BW. In addition, in series [1] (Unfit Subgroup), the “Average change in absolute peak power” value turned out to be 26.8±40.8 W, the “Average change in relative peak power” value was 0.33+0.52 W/kg BW, the “Absolute mean power output change” value is 13.2 (24.2) W and the “Relative mean power output change” value is given as 0.17 (0.32) W/kg BW. In addition, the “Mean Power (W/kg BW)” value in series [1] (Unfit Subgroup) stood at 0.20 ± 0.32 W/kg BW. In addition, in series [1] (Unfit Subgroup, p=0.01), the “Difference between DR and DEX in the change of absolute mean power” value is on record as 245%. For the same molecule, the “Improvement in relative mean power over DEX” value in series [1] (Unfit Subgroup, p=0.04) is listed as 288%. The Tolerability of supplement entry in series [2] was “without any subjective complaints or issues”. In series [3] (Fit Subgroup), the “Average HR” value is 153±12 bpm and the “HR (bpm)” value was found to be 152.6 ± 11.9 bpm. In addition, in series [3] (Unfit Subgroup), the “Average HR” value stood at 152±20 bpm and the “HR (bpm)” value was 151.5 ± 19.4 bpm.
